Experiment [1] has as its system Pseudomonas aeruginosa (ATCC27853). The format is cell-based. Conditions: for Ps A. IC50: Table 4. The protocol: (§1) The antimicrobial compounds of the present invention were assayed using a standard microdilution assay against gram-positive bacteria Staphylococcus aureus (strain used: ATTC 29213) and methicillin-resistant strain used ATCC 33591) and the gram-negative bacteria Pseudomonas aeruginosa (strain used ATCC27853). The samples were assayed against 1-5×10^5 colony forming units, in Mueller-Hinton broth, at 37° C. The activity was determined following a 21 hour incubation. The IC50 values were calculated using sigmoidal curve fitting software. (Graphpad™, ISI Software, San Diego, Calif.) and correspond to the sample concentration which inhibits 50 percent of bacterial growth. The minimum inhibitory concenttration (MIC) is defined as the lowest concentration of sample at which no growth is detected by optical density between

For experiment [2], the system named is Methicillin resistant Staphylococcus aureus (ATCC 33591). The format is cell-based. To be noted: for MRSA IC50: Table 4; for IC50 / MIC: ATCC 33591; for activity against MRSA (in words): gram-positive organism; for selectivity between MRSA and P. aeruginosa (in words): comparison of the MRSA and Ps A. IC50 of Table 4. The method, then: as §1
Experiment [3] deals with Fusarium oxysporum. Conditions: cited from earlier work.
The test system of experiment [4] is Fusarium moniliforme. Conditions: cited from earlier work.

In brackets after ≈: the same amount, converted by molar mass. Where two headings read alike, the source gives them in different places. Ends that are not written are not given here. Bounds are passed on as bounds.

The values below come from US6551998B1, “Antimicrobial agents” (University of Louisville Research Foundation, Inc., priority 1999, dated 2003).

“4-AMBψ[CH2NH]Lys-Ser-4-AMBψ[CH2NH]Leu-OH [Compound 38]”: the Ps A. IC50 in experiment [1] was over 500 µg/mL. In experiment [2], this compound came in with an MRSA IC50 of over 500 µg/mL.
A word on the IC50: it is the concentration that gives 50% inhibition. Read a low IC50 as higher potency. What is called MIC is the smallest concentration in the dilution series that meets the test's criterion for growth inhibition. Low values mean a more susceptible organism, high ones a less susceptible organism. In experiment [1] (ATCC27853, 21 h), `CC(C)C[C@H](NC[C@H](Cc1ccccc1)NC(=O)[C@H](Cc1ccccc1)NC(=O)[C@H](CCCCN)NC[C@@H](N)Cc1ccc2ccccc2c1)C(=O)O` [Compound 3, H-2-Nalψ[CH2NH]Lys-Phe-Pheψ[CH2NH]Leu-OH] had a half-maximal inhibitory concentration (IC50) of 31 µg/mL (≈ 42.9 µM) and an MIC of 40 to 62 µg/mL. In experiment [2], this compound had a half-inhibitory concentration (IC50) of 19 µg/mL (≈ 26.3 µM) and an MIC of 125 to 150 µg/mL.
In the case of “H-2-Nalψ[CH2NAc]Lys-Ser-Pheψ[CH2NH]Leu-OH [Compound 23]”, the Ps A. IC50 in experiment [1] stood at 33.5 µg/mL. The “activity against Pseudomonas aeruginosa (in words)” value in experiment [1] (gram negative organism) is on record as “active against both”. In experiment [2], the MRSA IC50 turned out to be 19.6 µg/mL and the “activity against MRSA (in words)” value is listed as “active against both”.
For the compound `CC(C)C[C@H](NC[C@H](Cc1ccccc1)NC(=O)[C@@H](NC(=O)[C@H](CCCCN)NC[C@@H](N)Cc1ccc2ccccc2c1)C(C)C)C(=O)O` [Compound 2, H-2-Nalψ[CH2NH]Lys-Val-Pheψ[CH2NH]Leu-OH], in experiment [1] (ATCC27853, 21 h), the concentration for half-maximal inhibition (IC50) amounted to 58 µg/mL (≈ 85.9 µM) and the MIC lay in the range of 80 to 152 µg/mL. In experiment [2], this compound registered an IC50 of 69 µg/mL (≈ 102 µM) and a minimal inhibitory concentration (MIC) of 125 to 250 µg/mL.
In the case of “H-D-2-Nalψ[CH2NH]D-Lys-D-Ser-D-Pheψ[CH2NH]D-Leu-OH [Compound 29]”, in experiment [1], the Ps A. IC50 was determined as 13.9 µg/mL. Also, in experiment [2], the MRSA IC50 was determined as 18.8 µg/mL; the “selectivity between MRSA and P. aeruginosa (in words)” value is “slight selectivity for the gram-negative organisms”.
The compound “H-2-Nalψ[CH2NH]Met-3-AMB-Pheψ[CH2NH]Leu-OH [Compound 34]” returned a Ps A. IC50 in experiment [1] of 230 µg/mL. In addition, the MRSA IC50 in experiment [2] came out at 47 µg/mL.
In turn, “H-2-Nalψ[CH2NH]Lys-Ser-Pheψ[CH2NAc]Leu-OH [Compound 30]” registered a Ps A. IC50 in experiment [1] of 50 µg/mL. The MRSA IC50 in experiment [2] came out at 26 µg/mL.
Take `CCC(CC)(NC[C@@H](N)Cc1ccc2ccccc2c1)C(=O)N[C@@H](CO)C(=O)N[C@H](CN[C@@H](CC(C)C)C(=O)O)Cc1ccccc1` [Compound 16, H-2-Nalψ[CH2NH]Deg-Ser-Pheψ[CH2NH]Leu-OH]: the IC50 came to 170 µg/mL (≈ 262 µM) in experiment [1] (Table 2, Mueller-Hinton broth, 37° C., 21 hour incubation, 50 percent inhibition of bacterial growth) and 17 µg/mL (≈ 26.2 µM) in experiment [2]. Besides, the minimum inhibitory concentration (MIC) in experiment [1] (Table 2, lowest concentration at which no growth is detected, 21 hour incubation) was over 250 µg/mL; in experiment [2] it was 62 to 125 µg/mL.
“H-2-Nalψ[CH2NAc]Met-Aib-Pheψ[CH2NH]Leu-OH [Compound 25]” came in with a Ps A. IC50 in experiment [1] of over 500 µg/mL. Besides, in experiment [2], the MRSA IC50 is 28.7 µg/mL; the “selectivity between MRSA and P. aeruginosa (in words)” value is on record as “very selective”; the “activity against MRSA (in words)” value is reported as “quite active”.
Turning to “Cecropin A: Cecropins are cationic linear peptides isolated from the hemolymph of the giant silk moth; insect-derived antimicrobial peptide (KWKLFKKIEKVGQNIRDGIIKAGPAVAVVGQATQIAK; ends and bridges not checked; UniProt P01507 27-63, looked up)”, the “concentration giving total killing” value in experiment [3] and in experiment [4] was 12.4 µg/mL each time.
